Here are results for 1 compound from patent US12616696B2, “Crystalline forms of (p)-3-chloro-4-((3,5-difluoropyridin-2-yl)methoxy)-2′-(2-(2-hydroxypropan-2-yl)pyrimidin-4-yl)-5′,6-dimethyl-2h-[1,4′-bipyridin]-2-one” (ACLARIS THERAPEUTICS, INC., priority 2020, dated 2026).

By solubility is commonly meant the dissolved amount per volume that the medium holds. Broadly, the Tmax is the time at which the peak concentration occurs.

Structures are written as SMILES. A value given as a limit tells only on which side of the number the result lay.

One data set relates to phospho-JNK. Nature of the data set: Phosphoprotein analysis in PMA-differentiated U937 cells: phospho-JNK/total JNK. To be noted: Homo sapiens, U-937, read-out: pJNK/Total JNK EC50. The format is cell-based. On the procedure:
(§1) The JNK pathway leads to increased inflammation by boosting production of inflammatory cytokines. […] Classical p38 inhibitors block the phosphorylation of downstream substrates of p38 while elevating activity of parallel pathways such as JNK. Evaluation of the impact of different classes of p38 inhibitors on p38 and JNK pathway regulation was carried out using phospho-HSP27 and phosphor-JNK for the two pathways, respectively. Evaluation of the potency and efficacy of p38 inhibitors to impact phosphoprotein levels was carried out using the human U937 cell line. The U937 human pre-monocytic cell line was obtained from the American Type Culture Collection (Rockville, MD). These cells were differentiated to a monocytic/macrophage phenotype as described by Burnette (Burnette et al, (2009). SD0006: a potent, selective and orally available inhibitor of p38 MAP Kinase, Pharmacology 84(1):42-60). Suspension cells (approximately 0.5 million per milliliter in T75 cm^2 tissue culture flasks) were grown in RPMI containing 10% fetal bovine serum (FBS) plus antibiotics. On day one, phorbol 12-myristate 13-acetate (PMA, 20 ng/mL) was added to the culture flask and the cells were incubated overnight at 37° C./5% CO2. The cells were washed on day two by centrifuging and resuspending them in fresh media without PMA. […]

For the next data set, the system named is phospho-HSP27. Nature of the data set: Phosphoprotein analysis in PMA-differentiated U937 cells: phospho-Hsp27/total Hsp27. It is filed as cell-based. To be noted: Homo sapiens, U-937, read-out: pHSP27/Total HSP27 IC50. On the procedure:
as §1

The nature of the next data set: physchem. Particulars: thermodynamic from solid; for solubility: 23 °C; for solubility at 1 h: 40 °C, Solubility at 40° C.
The next data set is described as follows: in vitro. Particulars: 50 mg, Tmax (time interval where BAmax is recorded). On the procedure: Test System: The study was performed in the TNO dynamic, multi-compartmental in vitro system of the stomach and small intestine (tiny-TIM). The tiny-TIM system consists of a gastric compartment and one small intestinal compartment (FIG. 8). This compartment is composed of two glass units with a flexible silicone inner wall enclosing the luminal material. The space between the inner and outer walls is filled with water. Peristaltic mixing of the chyme is the result of alternate compression and relaxation of the flexible inner wall. The compartments are connected by peristaltic valve pumps that successively open and close, allowing the chyme to transit over time through the compartments. […] The set-points for gastrointestinal simulation are controlled and monitored by specific computer programs. […]
Filtration of released and dissolved/solubilized drug molecules from the intestinal lumen via a semi-permeable membrane unit (Fresenius plasmaFlux® P1dry) allowed the assessment of the so-called bio-accessible fraction, i.e. the fraction of the drug which is available for small intestinal absorption. […] The collected volume per time period was measured and sub-samples were taken, instantly diluted in 50% Acetonitrile in Milli-q water and stored at 2-10° C., protected from light, until analysis.

Regarding `Cc1cnc(-c2ccnc(C(C)(C)O)n2)cc1-n1c(C)cc(OCc2ncc(F)cc2F)c(Cl)c1=O` (atropisomer, axis not shown; (P)) [Compound 49a, (P)-3-chloro-4-((3,5-difluoropyridin-2-yl)methoxy)-2′-(2-(2-hydroxypropan-2-yl)pyrimidin-4-yl)-5′,6-dimethyl-2H-[1,4′-bipyridin]-2-one], the EC50 in the data set on phospho-JNK came to 0.117 µM. The IC50 in the data set on phospho-HSP27 was 0.00115 µM. The solubility in “physchem” (organic solvent or mixture, low solubility at RT) was under 10 mg/mL; in the data set “physchem” (water, Solubility at RT), under 6 mg/mL. Besides, the solubility at 1 h is over 9 mg/mL in “physchem” (organic solvent or mixture) and under 6 mg/mL in “physchem” (water). Moreover, the Tmax in “in vitro” lay within 1 to 1.5 h.
